# Laboratory results taken from US12043599B2, “Herbicidal compounds” (SYNGENTA PARTICIPATIONS AG, priority 2018, dated 2024).
# Legend:
# Type in all cases: in vivo
# Conditions in all cases: 250 g/h, evaluated after 13 days
# [1] = tested on: Alopecurus myosuroides (ALOMY); assay: Pre-emergence herbicidal glasshouse test, percentage damage
# Procedure, shortened: (§1)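 Glasshouse, 24/16 °C, 14 h photoperiod, 65% humidity. Sprayed at 250 g/h pre- (1 d) or post-emergence (8 d); evaluated 13 d after spraying, 5-point damage scale.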
# [2] = tested on: Avena fatua (AVEFA); assay: as above
# Procedure, shortened: as §1
# [3] = tested on: Echinochloa crus-galli (ECHCG); assay: as above
# Procedure, shortened: as §1
# [4] = tested on: Lolium perenne (LOLPE); assay: as above
# Procedure, shortened: as §1
# [5] = tested on: Setaria faberi (SETFA); assay: as above
# Procedure, shortened: as §1
# [6] = tested on: Setaria faberi (SETFA); assay: Post-emergence herbicidal glasshouse test, percentage damage
# Procedure, shortened: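 Percentage damage was scored 13 days after treatment on a five-point scale (1=0-19% to 5=80-100%). Treatments were post-emergence sprays on 8-day-old wheat, barley and SETFA plants in a glasshouse (24/16 °C day/night, 14 h light, 65% humidity), using acetone/water 50:50 with 0.5% Tween 20 at the stated rates. Wheat additionally received cloquintocet-mexyl safener at 50 g/ha.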
# [7] = tested on: Alopecurus myosuroides (ALOMY); assay: as above
# Procedure, shortened: as §1
# [8] = tested on: Avena fatua (AVEFA); assay: as above
# Procedure, shortened: as §1
# [9] = tested on: Echinochloa crus-galli (ECHCG); assay: as above
# Procedure, shortened: as §1
# [10] = tested on: Lolium perenne (LOLPE); assay: as above
# Procedure, shortened: as §1
Compound,ALOMY PRE percentage damage (five point scale) [1],AVEFA PRE percentage damage (five point scale) [2],ECHCG PRE percentage damage (five point scale) [3],LOLPE PRE percentage damage (five point scale) [4],SETFA PRE percentage damage (five point scale) [5],SETFA POST percentage damage (five point scale) [6],ALOMY POST percentage damage (five point scale) [7],AVEFA POST percentage damage (five point scale) [8],ECHCG POST percentage damage (five point scale) [9],LOLPE POST percentage damage (five point scale) [10]
CC#Cc1cc(C)c(C2C(=O)CC3(CCN(C(=O)C(C)(C)O)CC3)CC2=O)c(C)c1 [Compound A146],5 (5=80-100%),4 (4=60-79%),5 (5=80-100%),5 (5=80-100%),5 (5=80-100%),5 (5=80-100%),5 (5=80-100%),5 (5=80-100%),5 (5=80-100%),5 (5=80-100%)
CC#Cc1cc(C)c(C2C(=O)CC3(CCN(S(=O)(=O)CC4COCCO4)CC3)CC2=O)c(C)c1 (stereo not shown) [Compound A39],4 (4=60-79%),4 (4=60-79%),5 (5=80-100%),5 (5=80-100%),5 (5=80-100%),5 (5=80-100%),5 (5=80-100%),5 (5=80-100%),5 (5=80-100%),5 (5=80-100%)
CC#Cc1cc(C)c(C2C(=O)CC3(CCN(C(=O)Cc4ncccn4)CC3)CC2=O)c(C)c1 [Compound A102],2 (2=20-39%),5 (5=80-100%),5 (5=80-100%),5 (5=80-100%),5 (5=80-100%),5 (5=80-100%),5 (5=80-100%),5 (5=80-100%),5 (5=80-100%),5 (5=80-100%)
CC#Cc1cc(C)c(C2C(=O)CC3(CCN(C(=O)CCc4ccccn4)CC3)CC2=O)c(C)c1 [Compound A184],1 (1=0-19%),2 (2=20-39%),4 (4=60-79%),5 (5=80-100%),5 (5=80-100%),5 (5=80-100%),4 (4=60-79%),5 (5=80-100%),5 (5=80-100%),5 (5=80-100%)
CC#Cc1cc(C)c(C2C(=O)CC3(CCN(C(=O)[C@@H]4COCCO4)CC3)CC2=O)c(C)c1 [Compound A174],5 (5=80-100%),5 (5=80-100%),5 (5=80-100%),5 (5=80-100%),5 (5=80-100%),5 (5=80-100%),5 (5=80-100%),5 (5=80-100%),5 (5=80-100%),5 (5=80-100%)
CC#Cc1cc(C)c(C2=C(OC(=O)OC)CC3(CCN(C(=O)c4cccnn4)CC3)CC2=O)c(C)c1 [Compound P30],5 (5=80-100%),5 (5=80-100%),5 (5=80-100%),5 (5=80-100%),5 (5=80-100%),5 (5=80-100%),5 (5=80-100%),5 (5=80-100%),5 (5=80-100%),5 (5=80-100%)
CC#Cc1cc(C)c(C2=C(OC(=O)COC)CC3(CCN(C(=O)COC)CC3)CC2=O)c(C)c1 [Compound P18],5 (5=80-100%),5 (5=80-100%),5 (5=80-100%),5 (5=80-100%),5 (5=80-100%),5 (5=80-100%),5 (5=80-100%),5 (5=80-100%),5 (5=80-100%),5 (5=80-100%)
"CC#Cc1cc(C)c(C2=C(OC(=O)C3CC3)CC3(CCN(C(=O)C4CC4)CC3)CC2=O)c(C)c1 [Compound P1, [3-(cyclopropanecarbonyl)-9-(2,6-dimethyl-4-prop-1-ynyl-phenyl)-10-oxo-3-azaspiro[5.5]undec-8-en-8-yl] cyclopropanecarboxylate]",5 (5=80-100%),5 (5=80-100%),5 (5=80-100%),5 (5=80-100%),5 (5=80-100%),5 (5=80-100%),5 (5=80-100%),5 (5=80-100%),5 (5=80-100%),5 (5=80-100%)
CC#Cc1cc(C)c(C2C(=O)CC3(CCN(C(=O)N(C)OC)CC3)CC2=O)c(C)c1 [Compound A9],5 (5=80-100%),5 (5=80-100%),5 (5=80-100%),5 (5=80-100%),5 (5=80-100%),5 (5=80-100%),5 (5=80-100%),5 (5=80-100%),5 (5=80-100%),5 (5=80-100%)
CC#Cc1cc(C)c(C2=C(OC(=O)OC)CC3(CCN(C(=O)C(C)(C)C#N)CC3)CC2=O)c(C)c1 [Compound P27],5 (5=80-100%),5 (5=80-100%),5 (5=80-100%),5 (5=80-100%),5 (5=80-100%),5 (5=80-100%),5 (5=80-100%),5 (5=80-100%),5 (5=80-100%),5 (5=80-100%)
CC#Cc1cc(C)c(C2C(=O)CC3(CCN(C(=O)c4ccccn4)CC3)CC2=O)c(OC)c1 [Compound A74],5 (5=80-100%),5 (5=80-100%),5 (5=80-100%),5 (5=80-100%),5 (5=80-100%),5 (5=80-100%),5 (5=80-100%),5 (5=80-100%),5 (5=80-100%),5 (5=80-100%)
CC#Cc1cc(C)c(C2C(=O)CC3(CCN(C(=O)NC(=O)C(C)(C)C)CC3)CC2=O)c(OC)c1 [Compound A77],5 (5=80-100%),5 (5=80-100%),5 (5=80-100%),5 (5=80-100%),5 (5=80-100%),5 (5=80-100%),5 (5=80-100%),5 (5=80-100%),5 (5=80-100%),5 (5=80-100%)
CC#Cc1cc(C)c(C2C(=O)CC3(CCN(C(=O)NC(=O)c4ncc(C(F)(F)F)cc4Cl)CC3)CC2=O)c(C)c1 [Compound A158],2 (2=20-39%),2 (2=20-39%),5 (5=80-100%),3 (3=40-59%),5 (5=80-100%),5 (5=80-100%),3 (3=40-59%),5 (5=80-100%),5 (5=80-100%),5 (5=80-100%)
